Legend:
[1] = Precipitation of Au by L from various aqueous matrices (Table 1); conditions: 0.059 g L, 1 hour, room temperature
Method: Conditions: 2 mL Au solution contacted with 0.059 g L for 1 hour, room temperature. Solution filtered and diluted 100× in 2% HNO3 prior to ICP-OES analysis. *HAuCl4 used. **Au^0 added to sulfuric acid solution with a few drops of 30% hydrogen peroxide added to aid dissolution of Au. All solutions were diluted 100× prior to ICP-OES analysis.

[2] = Precipitation of HAuCl4 by L from 2 M HCl (Table 2); conditions: 0.01M HAuCl4 in 2M HCl after contact with L
Method: Table 2 below describes precipitation of HAuCl4 by L from 2 M HCl followed by its release from L as HAuCl4 using deionised water. All solutions were diluted 100× prior to ICP-OES analysis.

[3] = Precipitation from 0.01 M mixed-metal solution in HCl (FIG. 2): Au
Method: (§1) Hydrochloric acid solutions (2 M and 6 M) were prepared by dilution of concentrated hydrochloric acid with deionised water. Mixed-metal solutions (0.01 M) were typically prepared by dilution of 0.1 M stock solutions of each individual metal salt solution in 2 or 6 M HCl.
(§2) Solid compound L (0.2 mmol or 0.02 mmol) was added to a vial with a magnetic stir bar and the metal-containing aqueous solution (2 mL) added. The mixture was stirred for 1 hour at room temperature (20° C.) at 500 rpm after which the stir bar was removed and the vial centrifuged. The supernatant was decanted and samples prepared for ICP-OES analysis to measure the uptake of metal by L. Samples were diluted by 100× in 2% nitric acid prior to ICP-OES analysis. This procedure was repeated in triplicate.
(§3) FIG. 2 is a graph showing percentage metal(s) removed by precipitation from a 0.01 M mixed-metal solution in 2 M or 6 M HCl following the addition of either 0.2 mmol of compound L (10-fold excess L relative to metal) or 0.02 mmol of L (equimolar).

[4] = Precipitation from 0.01 M mixed-metal solution in HCl (FIG. 2): other metals; conditions: 0.2 mmol solid L (10-fold excess), 0.01 M mixed-metal solution in 2 M HCl
Method: as §1, §2, §3

[5] = Precipitation from 0.01 M mixed-metal solution in HCl (FIG. 2): Fe; conditions: excess L, 0.01 M mixed-metal solution in 6 M HCl
Method: as §1, §2, §3

[6] = Precipitation from 0.01 M mixed-metal solution in HCl (FIG. 2): Sn; conditions: excess L, 0.01 M mixed-metal solution in 6 M HCl
Method: as §1, §2, §3

[7] = Precipitation from 0.01 M mixed-metal solution in HCl (FIG. 2): Pt; conditions: excess L, 0.01 M mixed-metal solution in 6 M HCl
Method: as §1, §2, §3

[8] = Selective stripping with H-tube apparatus (FIG. 3)
Method: Solid L (0.2 mmol) was added to one side of the H-tube with a stir bar. The metal-containing aqueous solution (2 mL) was then added to the solids and the mixture stirred for 1 hour at room temperature at 500 rpm, after which it was passed through the glass frit of the H-tube with the aid of compressed air or N2 gas. The filtrate was collected for ICP-OES analysis to determine metal uptake. The solids were subsequently washed with 2 M HCl (3×2 mL) for 30 mins, with each 2 mL solution being passed through the glass frit of the H-tube. The solids were then washed with ultrapure deionised water (5×2 mL) in the same manner. The use of a H-tube allows for all solids to be retained in the same vessel to minimise any loss of metal due to material transfer. This procedure was repeated in duplicate.
(a) orange bars: Percentage metal removed by precipitation from a 0.01 M mixed-metal solution in 6 M HCl.
(b) green bars: percentage of metal stripped from the precipitate by a 2 M HCl wash.
(c) blue bars: percentage of metal stripped from the precipitate after a subsequent wash with DI water.

[9] = Precipitation from multi-element ICP standard solutions (FIG. 4, FIG. 25): Au; conditions: excess compound, 24 hours, RT
Method: (§4) The following ICP multi-element standard solutions were used: Transition metal mix 3 for ICP supplied by Sigma Aldrich comprising 100 mg L^−1 Au, Ir, Os, Pd, Pt, Rh, Ru in 10% hydrochloric acid and ICP multi-element standard solution IV comprising 1000 mg L^−1 Ag, Al, B, Ba, Bi, Ca, Cd, Co, Cr, Cu, Fe, Ga, In, K, Li, Mg, Mn, Na, Ni, Pb, Sr, Tl, Zn in dilute nitric acid.
(§5) Each solution (1 mL) was diluted to 10 mL using either 2 M HCl or 6 M HCl, resulting in solutions of 10 ppm Au, Ir, Os, Pd, Pt, Rh, Ru and 100 mg L^−Al, B, Ba, Bi, Ca, Cd, Co, Cr, Cu, Fe, Ga, In, K, Li, Mg, Mn, Na, Ni, Pb, Sr, Tl, Zn. The solutions were filtered prior to use in precipitation experiments due to the precipitation of silver chloride, which was subsequently excluded from ICP-OES analysis. The precipitation method used for the 0.01 M mixed-metal solutions was followed.
(§6) FIGS. 25(a)-(c) show alternative embodiments of the compounds that were tested. Conditions were: 0.2 mmol of compound contacted with a 2 M or 6 M HCl multi element solution for 24 hours, RT.
(§7) The solution comprised: • 10 mg L^−1 Au, Ir, Os, Pd, Pt, Rh, Ru; and • 100 mg L^−1 Al, B, Ba, Bi, Ca, Cd, Co, Cr, Cu, Fe, Ga, In, K, Li, Mg, Mn, Na, Ni, Pb, Sr, Tl, Zn/

[10] = Precipitation from multi-element ICP standard solutions (FIG. 4, FIG. 25): Tl; conditions: excess compound, 24 hours, RT
Method: as §4, §5, §6, §7

[11] = Precipitation from multi-element ICP standard solutions (FIG. 4, FIG. 25): Ga; conditions: 6 M HCl multi-element solution (100 mg L^−1 Ga), excess compound, 24 hours, RT
Method: as §4, §5, §6, §7

[12] = Precipitation from multi-element ICP standard solutions (FIG. 4, FIG. 25): Fe; conditions: 6 M HCl multi-element solution (100 mg L^−1 Fe), excess compound, 24 hours, RT
Method: as §4, §5, §6, §7

[13] = Precipitation from multi-element ICP standard solutions (FIG. 4): Pt; conditions: multi-element ICP standard solutions in HCl, Pt present as Pt(II), excess L
Method: as §4, §5

[14] = Selective precipitation from waste printed circuit boards (Table 3): Au; conditions: 20% aqua regia solution from waste printed circuit boards; 0.02 mmol L, 1 hour
Method: (§8) End-of-life printed circuit boards were supplied by Edinburgh School of Chemistry workshop. Gold-tipped sections of the circuit boards (22.85 g) were cut off and soaked in 100 mL aqua regia for 24 hours. This solution was then diluted with deionised water to 250 mL and the metal content analysed by ICP-OES.
(§9) An aliquot of the e-waste solution (2 mL) was stirred with L (0.0059 g, 0.02 mmol, excess with respect to the gold concentration) for 1 hour at room temperature after which the stir bar was removed and the vial centrifuged. The supernatant was decanted and samples prepared for ICP-OES analysis to measure the uptake of metal. Samples were diluted by 1000× and 20× in 2% nitric acid prior to ICP-OES analysis. This procedure was repeated in triplicate.

[15] = Selective precipitation from waste printed circuit boards (Table 3): Cu; conditions: 20% aqua regia solution from waste printed circuit boards; 0.02 mmol L, 1 hour
Method: as §8, §9

[16] = Selective precipitation from waste printed circuit boards (Table 3): Ni; conditions: 20% aqua regia solution from waste printed circuit boards; 0.02 mmol L, 1 hour
Method: as §8, §9

[17] = Selective precipitation from waste printed circuit boards (Table 3): Pb; conditions: 20% aqua regia solution from waste printed circuit boards; 0.02 mmol L, 1 hour
Method: as §8, §9

[18] = Selective precipitation from waste printed circuit boards (Table 3): Sn; conditions: 20% aqua regia solution from waste printed circuit boards; 0.02 mmol L, 1 hour
Method: as §8, §9

[19] = Precipitation from 0.01 M mixed-metal solution of precious metals in 6 M HCl (FIG. 10); conditions: 0.01 M precious metals in 6 M HCl
Method: FIG. 10 Graph showing percentage metal(s) removed by precipitation from a 0.01 M mixed-metal solution of precious metals in 6 M HCl following the addition of either 0.2 mmol of compound L (10-fold excess L relative to metal) or 0.02 mmol of L (equimolar);
as §1, §2
Referring to FIG. 10, there is shown a graph depicting percentage metal(s) removed by precipitation from a 0.01 M mixed-metal solution of precious metals in 6 M HCl following the addition of either 0.2 mmol of compound L (10-fold excess L relative to metal) or 0.02 mmol of L (equimolar).

[20] = Quantitative NMR solubility experiments; assay type: physicochemical
Method: ^1H NMR spectra were recorded on a Bruker Avance III 400 MHz spectrometer. 2 M and 6 M HCl solutions were diluted from concentrated HCl in D2O. A 0.1 M solution of L in 2 M or 6 M HCl was prepared by adding L (0.0178 g) to an NMR tube along with the relevant HCl/D2O solution (0.55 mL) and 1 M tert-butanol in D2O (0.05 mL) as an internal standard. Any undissolved solids were allowed to settle to the bottom of the NMR tube before acquiring ^1H NMR spectra.
^1H NMR spectra were acquired for 2 M HCl solutions between 300-350 K in 10 K increments and for 6 M HCl solutions between 300-330 K in 10 K increments; attempts to acquire additional spectra beyond 330 K for these latter samples were unsuccessful due to excessive line broadening of the spectra and difficulties with sample locking.

[21] = Gold precipitation from HAuCl4 solutions versus acid concentration and temperature (FIGS. 7-9)

**Q.** Which results are given for `CN(CCN(C)C(=O)c1ccccc1)C(=O)c1ccccc1` [L]?
**A.** % Precipitated ([1]; 2 mol L^−1 H2SO4 and 2M NaBr, Au^0 with H2O2, initial Au 1930 mg L^−1): 99.5%; % Precipitated ([1]; 2 mol L^−1 H2SO4 and 2M NaCl, Au^0 with H2O2, initial Au 1940 mg L^−1): 99.4%; % Precipitated ([1]; 20% Aqua regia, HAuCl4 used, initial Au 1920 mg L^−1): 99.8%; % Precipitated ([1]; 100% Aqua regia, HAuCl4 used, initial Au 1920 mg L^−1): 99.7%; % Precipitation [2]: 99.6%; removal of Au by precipitation ([3]; 0.2 mmol solid L (10-fold excess), 0.01 M each of Au, Al, Cu, Ni, Fe, Zn, Pt, Pd, Sn in 2 M HCl): near quantitative removal of Au; uptake of Au ([3]; excess L, 0.01 M mixed-metal solution in 6 M HCl): complete uptake; metal uptake (selectivity) ([3]; stoichiometric L (0.02 mmol), 0.01 M mixed-metal solution in 2 M HCl): gold uptake only; metal uptake (selectivity) ([3]; stoichiometric L, 0.01 M mixed-metal solution in 6 M HCl): selective gold uptake; co-precipitation of other metals [4]: < 5%; uptake of Fe [5]: complete uptake; uptake of Sn [6]: complete uptake; uptake of Pt [7]: complete uptake; metal stripped from the precipitate by a 2 M HCl wash ([8]; L loaded with Au, Fe, Pt and Sn at 6 M HCl, then wash with 2 M HCl): dissolution of Fe, Sn and Pt only, with Au retained on the solids; metal stripped from the precipitate by subsequent wash with DI water ([8]; isolated solids after the 2 M HCl wash, washed with DI water): releases the Au into solution; % uptake / precipitation of Au ([9]; 2 M HCl multi-element solution (10 mg L^−1 Au)): 70%; % uptake / precipitation of Au ([9]; 6 M HCl multi-element solution (10 mg L^−1 Au)): > 99%; % uptake / precipitation of Tl ([10]; 2 M HCl multi-element solution (100 mg L^−1 Tl)): 10%; % uptake / precipitation of Tl ([10]; 6 M HCl multi-element solution (100 mg L^−1 Tl)): 95%; % uptake / precipitation of Ga [11]: > 99%; % uptake / precipitation of Fe [12]: 70%; Pt uptake [13]: no Pt uptake; % metal precipitated, Au [14]: 98.1%; % metal precipitated, Cu [15]: 0%; % metal precipitated, Ni [16]: 0%; % metal precipitated, Pb [17]: 0%; % metal precipitated, Sn [18]: 0%; metal(s) removed by precipitation (selectivity) ([19]; equimolar L (0.02 mmol)): selective precipitation of gold over other precious metals; metal(s) removed by precipitation (selectivity) ([19]; excess L (0.2 mmol, 10-fold)): selective co-precipitation of gold and platinum; concentration of dissolved L ([20]; 2 M HCl, heated to 350 K): 100 µM; Dissolution of L (concentration of dissolved L) ([20]; 2 M HCl, quantitative 1H NMR): 0.02 mM; concentration of dissolved L ([20]; 6 M HCl, 300 K): 320 µM; increase in dissolved L on increasing HCl from 2 M to 6 M ([20]; 300 K): 16 fold; quantity of [HL][AuCl4] precipitated over 5 minutes on raising temperature ([21]; 2 M HCl, from 20 to 40° C. and from 40 to 80° C.): doubles; precipitation of [HL][AuCl4] on addition of HAuCl4 ([21]; solution of L in 12 M HCl): rapid and wholesale precipitation

From patent publication US20240368727A1, “METHOD OF SELECTIVE PRECIPITATION OF METALS USING AMIDE COMPOUNDS” (The University Court of the University of Edinburgh, priority 2021, published 2024)
